Laboratory results: patent US20110065694A1 (priority 2009, published 2011)
Like-named read-outs stand apart in the source and are kept apart here.

Assays:
H3 receptor = target: T1, H3 receptor (Rattus norvegicus, UniProt Q9QYN8); test: Rat H3 ex vivo receptor occupancy assay; conditions: dose giving 50% H3 receptor occupancy; ex vivo binding of [3H] R-α-methylhistamine in rat frontal cortical membranes
T1 construct: membranes to be tested were prepared from brain frontal cortex membranes by homogenization; from tissue; host or cells: frontal cortex of adult male Sprague-Dawley rats
T1 sequence (Q9QYN8 whole entry): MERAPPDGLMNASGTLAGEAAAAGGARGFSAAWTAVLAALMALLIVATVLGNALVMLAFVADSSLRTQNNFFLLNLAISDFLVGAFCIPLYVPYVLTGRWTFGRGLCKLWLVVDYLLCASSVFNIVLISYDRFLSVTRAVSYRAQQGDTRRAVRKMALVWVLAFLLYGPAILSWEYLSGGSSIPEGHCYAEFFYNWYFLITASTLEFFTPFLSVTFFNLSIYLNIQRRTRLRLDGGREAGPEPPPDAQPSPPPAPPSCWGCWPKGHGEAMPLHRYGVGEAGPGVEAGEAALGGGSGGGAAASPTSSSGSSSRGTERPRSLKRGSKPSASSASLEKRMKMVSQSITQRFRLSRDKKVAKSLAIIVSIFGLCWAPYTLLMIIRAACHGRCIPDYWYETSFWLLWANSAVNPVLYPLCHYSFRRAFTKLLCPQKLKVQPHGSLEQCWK
Protocol: This assay was designed to measure occupancy of H3 receptors by compounds provided herein by measuring the competition of binding to the H3 receptor with a radiolabeled ligand known to bind to the H3 receptor. More specifically, receptor occupancy was determined by ex vivo binding studies in rat cortical membranes.
Adult male Sprague-Dawley rats were treated with vehicle or compound at four different dose levels. After an appropriate pre-treatment time (typically 30 min to 1 hr), membranes to be tested were prepared from brain frontal cortex membranes by homogenization in ice-cold assay buffer. Frontal cortical membranes (400 μL containing an equivalent of 5 mg wet weight of tissue/tube) were incubated with 50 µL of [^3H] R-α-methylhistamine (final concentration 2 nM) and either 50 μL of buffer (total binding) or 50 μL of imetit (10 μM; non-specific binding) for 30 min at 25° C. in triplicates. Membrane bound radioactivity was recovered by filtration under vacuum through Skatron 11731 filters, pre-soaked in 0.5% PEI. Filters were rapidly washed with ice-cold 50 mM Tris buffer (wash setting 9,9,0) and radioactivity was determined by liquid scintillation counting (1 mL Packard MV Gold Scintillator). The amount of radioactivity in the membranes at the different doses was used generate a dose response curve and to calculate the ED50 (the dose that results in 50% receptor occupancy).
ED50 is the amount of drug at which 50% of the H3 receptors are occupied by the drug as measured by the amount of radioactivity measured at that dose relative to that measured when no drug (or vehicle) was administered.

[1] = target: human histamine H3 receptor (Homo sapiens, UniProt Q9Y5N1); test: H3 GTPγS assay (SPA method), histamine H3 in vitro assay; type: biochemical
Sequence of human histamine H3 receptor (Q9Y5N1 whole entry): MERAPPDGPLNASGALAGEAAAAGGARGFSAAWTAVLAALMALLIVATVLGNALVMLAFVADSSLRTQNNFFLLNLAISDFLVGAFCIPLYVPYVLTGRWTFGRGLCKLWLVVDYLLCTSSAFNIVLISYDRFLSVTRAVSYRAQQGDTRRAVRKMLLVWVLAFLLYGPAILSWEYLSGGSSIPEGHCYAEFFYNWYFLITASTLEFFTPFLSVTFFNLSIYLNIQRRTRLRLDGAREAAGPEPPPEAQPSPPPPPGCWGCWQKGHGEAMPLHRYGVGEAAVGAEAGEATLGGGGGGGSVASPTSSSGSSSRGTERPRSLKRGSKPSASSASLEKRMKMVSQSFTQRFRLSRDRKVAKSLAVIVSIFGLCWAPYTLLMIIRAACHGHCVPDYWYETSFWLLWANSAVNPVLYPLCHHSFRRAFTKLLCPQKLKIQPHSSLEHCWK
Protocol: Briefly, cells expressing the human histamine H3 receptor were homogenized in 15 mM Tris-HCl pH 7.5, 2 mM MgCl2, 0.3 mM EDTA, and 1 mM EGTA. […] Membranes were frozen in liquid nitrogen until use. On the day of the assay, membranes were thawed and diluted in assay buffer (20 mM HEPES pH 7.4, 100 mM NaCl, 10 μg/ml saponin, 1 mM MgCl2) to give 500 μg/ml and mixed (v/v) with GDP in assay buffer for a final GDP concentration of 10 μM and incubated on ice for at least […]. PVT-WGA beads (Amersham, RPNQ001) were diluted in assay buffer at 50 mg/mL and mixed with GTPγ[^35S] (Amersham, SJ1308) diluted in assay buffer to give ˜25,000 dpm/10 μL and mixed vol/vol just before the start of the reaction.
For antagonists testing, 10 μL of a reference agonist ([…]) instead of 10 μL buffer was added at a concentration corresponding to the EC80 (30 nM).
The compounds provided herein were tested in the histamine H3 in vitro assay. In one embodiment, the respective HCl salts of the compounds provided herein were prepared using standard chemical procedures and tested in the histamine H3 in vitro assay.

[2] = membranes of cells expressing human H3, GTPγ[35S] SPA, antagonist testing with reference agonist at EC80 (30 nM), in one embodiment HCl salts tested, read-out: Potency (functional potency as indicated by IC50)

SMILES	ED50 (H3 receptor)	IC50 [1, 2]	IC50 [1]
c1cc2c(cc1CN1CCOCC1)nc1n2CCCN(C2CCC2)CC1 [Compound 84, 4-((3-cyclobutyl-1,2,3,4,5,6-hexahydrobenzo[4,5]imidazo[1,2-a][1,5]diazocin-10-yl)methyl)morpholine]	≥ 1 mg/kg	< 10 nM	
c1ccc2c(c1)CCN(Cc1ccc3c(c1)nc1n3CCCN(C3CCC3)CC1)C2 [Compound 85, 3-cyclobutyl-10-((3,4-dihydroisoquinolin-2(1H)-yl)methyl)-1,2,3,4,5,6-hexahydrobenzo[4,5]imidazo[1,2-a][1,5]diazocine]	≤ 1 mg/kg	< 10 nM	
Clc1ccc2c(c1)nc1n2CCCN(C2CCC2)CC1 [Compound 57, 10-chloro-3-cyclobutyl-1,2,3,4,5,6-hexahydrobenzo[4,5]imidazo[1,2-a][1,5]diazocine]		< 100 nM	
c1cn2cc(-c3ccc4c(c3)nc3n4CCCN4CCCC4C3)ccc2n1 (single isomer, unassigned) [Compound 83]		< 10 nM	
N#Cc1ccc(-c2ccc3c(c2)nc2n3C3CCC2CN(C2CCC2)C3)cc1 (stereo not drawn) [Compound 26, 4-(3-cyclobutyl-2,3,4,5-tetrahydro-1H-1,5-ethanobenzo[4,5]imidazo[1,2-d][1,4]diazepin-8-yl)benzonitrile]			< 100 nM
N#Cc1ccc(-c2ccc3c(c2)nc2n3CCN3CCC[C@H]3C2)cc1 [Compound 2, (S)-4-(2,3,5,6,13,13a-hexahydro-1H-benzo[4,5]imidazo[1,2-d]pyrrolo[2,1-g][1,4]diazepin-10-yl)benzonitrile]			< 100 nM
c1ccc2c(c1)ncn2-c1ccc2c(c1)nc1n2CC2CCC(C1)N2C1CCC1 (stereo not drawn) [Compound 61, 3-(1H-benzo[d]imidazol-1-yl)-13-cyclobutyl-6,7,8,9,10,11-hexahydro-7,10-epiminobenzo[4,5]imidazo[1,2-a]azocine]		< 100 nM	
c1cc2c(cc1CN1CCOCC1)nc1n2CC2CCC(C1)N2C1CCC1 (stereo not drawn) [Compound 62, 4-((13-cyclobutyl-6,7,8,9,10,11-hexahydro-7,10-epiminobenzo[4,5]imidazo[1,2-a]azocin-3-yl)methyl)morpholine]		< 100 nM	
Clc1ccc2c(c1)nc1n2CC2CCC(C1)N2C1CCC1 (stereo not drawn) [Compound 18, 3-chloro-13-cyclobutyl-6,7,8,9,10,11-hexahydro-7,10-epiminobenzo[4,5]imidazo[1,2-a]azocine]		< 1000 nM	
c1cn2cc(-c3ccc4c(c3)nc3n4CCN4CCCC4C3)ccc2n1 (single isomer, unassigned) [Compound 77]		< 10 nM	
Brc1ccc2c(c1)nc1n2CCN2CCC[C@H]2C1 [Compound 1, (S)-10-bromo-2,3,5,6,13,13a-hexahydro-1H-benzo[4,5]imidazo[1,2-d]pyrrolo[2,1-g][1,4]diazepine]			< 1000 nM
c1cn2cc(-c3ccc4c(c3)nc3n4CCN4CCCC4C3)ccc2n1 (single isomer, unassigned) [Compound 78]		< 100 nM	
c1cn2cc(-c3ccc4c(c3)nc3n4CCN4CCCCC4C3)ccc2n1 (stereo not drawn) [Compound 15, 11-(imidazo[1,2-a]pyridin-6-yl)-1,2,3,4,6,7,14,14a-octahydrobenzo[4,5]imidazo[1,2-d]pyrido[2,1-g][1,4]diazepine]		< 10 nM	
c1cn2cc(-c3ccc4c(c3)nc3n4CCCN4CCCC4C3)ccc2n1 (single isomer, unassigned) [Compound 82]		< 10 nM	
N#Cc1ccc(-c2ccc3c(c2)nc2n3CC3CCC(C2)N3C2CCC2)cc1 (single isomer, unassigned) [Compound 45]		< 1000 nM	
c1cn2cc(-c3ccc4c(c3)nc3n4CCN4CCCC4C3)ccc2n1 (stereo not drawn) [Compound 74, 10-(imidazo[1,2-a]pyridin-6-yl)-2,3,5,6,13,13a-hexahydro-1H-benzo[4,5]imidazo[1,2-d]pyrrolo[2,1-g][1,4]diazepine]		< 10 nM	

Now from value to compound, other results behind:

ED50 (H3 receptor)	IC50 [1, 2]	SMILES	IC50 [1]
≥ 1 mg/kg	< 10 nM	c1ccc2c(c1)CCN(Cc1ccc3c(c1)nc1n3CCN3CCCC[C@@H]3C1)C2 (single isomer, unassigned) [Compound 64]	
	< 10 nM	c1ccc2c(c1)CCN(Cc1ccc3c(c1)nc1n3CCN3CCCC3C1)C2 (stereo not drawn) [Compound 76, 10-((3,4-dihydroisoquinolin-2(1H)-yl)methyl)-2,3,5,6,13,13a-hexahydro-1H-benzo[4,5]imidazo[1,2-d]pyrrolo[2,1-g][1,4]diazepine]	
	< 10 nM	c1cc2c(cc1CN1CCOCC1)nc1n2CCN2CCCCC2C1 (single isomer, unassigned) [Compound 50]	
	> 1000 nM	Clc1ccc2c(c1)nc1n2C2CC(C1)N(C1CCC1)C2 (stereo not drawn) [Compound 32, 8-chloro-3-cyclobutyl-2,3,4,5-tetrahydro-1H-1,4-methanobenzo[4,5]imidazo[1,2-d][1,4]diazepine]	
	< 100 nM	CC(=O)Nc1ccc(-c2ccc3c(c2)nc2n3CCN3CCC[C@H]3C2)cc1 [Compound 3, (S)-N-(4-(2,3,5,6,13,13a-hexahydro-1H-benzo[4,5]imidazo[1,2-d]pyrrolo[2,1-g][1,4]diazepin-10-yl)phenyl)acetamide]	
	< 1000 nM	c1cn2cc(-c3ccc4c(c3)nc3n4C4CC(C3)N(C3CCC3)C4)ccc2n1 (stereo not drawn) [Compound 34, 3-cyclobutyl-8-(imidazo[1,2-a]pyridin-6-yl)-2,3,4,5-tetrahydro-1H-1,4-methanobenzo[4,5]imidazo[1,2-d][1,4]diazepine]	
	< 10 nM	N#Cc1ccc(-c2ccc3c(c2)nc2n3CCCN(C3CCC3)CC2)cc1 [Compound 58, 4-(3-cyclobutyl-1,2,3,4,5,6-hexahydrobenzo[4,5]imidazo[1,2-a][1,5]diazocin-10-yl)benzonitrile]	
	> 1000 nM	c1cnc(-c2ccc3c(c2)nc2n3CCN3CCC[C@H]3C2)cn1 [Compound 6, (S)-10-(pyrazin-2-yl)-2,3,5,6,13,13a-hexahydro-1H-benzo[4,5]imidazo[1,2-d]pyrrolo[2,1-g][1,4]diazepine]	
	< 10 nM	c1cnc(-c2ccc3c(c2)nc2n3CCN3CCCCC3C2)cn1 (stereo not drawn) [Compound 9, 11-(pyrazin-2-yl)-1,2,3,4,6,7,14,14a-octahydrobenzo[4,5]imidazo[1,2-d]pyrido[2,1-g][1,4]diazepine]	
	< 100 nM	c1cc2c(cc1CN1CCOCC1)nc1n2CCCN2CCCCC2C1 (stereo not drawn) [Compound 68, 4-((2,3,4,6,7,8,15,15a-octahydro-1H-benzo[4,5]imidazo[1,2-a]pyrido[2,1-d][1,5]diazocin-12-yl)methyl)morpholine]	
	< 10 nM	c1ccc2c(c1)ncn2-c1ccc2c(c1)nc1n2CCN2CCCCC2C1 (stereo not drawn) [Compound 16, 11-(1H-benzo[d]imidazol-1-yl)-1,2,3,4,6,7,14,14a-octahydrobenzo[4,5]imidazo[1,2-d]pyrido[2,1-g][1,4]diazepine]	
	< 100 nM	N#Cc1ccc(-c2ccc3c(c2)nc2n3CCN3CCCCC3C2)cc1 (single isomer, unassigned) [Compound 46]	
	< 1000 nM	c1cn2cc(-c3ccc4c(c3)nc3n4CCN(C4CCC4)C3)ccc2n1 [Compound 54, 2-cyclobutyl-8-(imidazo[1,2-a]pyridin-6-yl)-1,2,3,4-tetrahydrobenzo[4,5]imidazo[1,2-a]pyrazine]	
	< 10 nM	c1cc2c(cc1CN1CCOCC1)nc1n2CCN2CCCCC2C1 (stereo not drawn) [Compound 17, 4-((1,2,3,4,6,7,14,14a-octahydrobenzo[4,5]imidazo[1,2-d]pyrido[2,1-g][1,4]diazepin-11-yl)methyl)morpholine]	
